The test system of experiment [1] is differentiated HL-60 neutrophil. Put plainly: Cytosolic Ca2+ in agonist-activated neutrophils (fura-2). It counts as cell-based. On the procedure:
FIG. 4 is a bar graph depicting the peak cytosolic Ca^2+ concentrations for neutrophils activated with fMLP or ATP agonists in the presence or absence of 10 μM NSC119910. fMLP, n=3; ATP, n=2.
Gβγ-regulated activities of PI3Kγ and PLC-β2/-β3 are important in chemoattractant-induced responses and inflammation. PI3Kγ is involved in the production of TI-IgλL and mice deficient in PI3Kγ, lack neutrophil migration (Li, et al, (2000) Science 287:1046-9). The PLC pathway is involved in down-modulation of chemotaxis and in hyperinflammatory conditions (Li, et al. (2000) supra). Therefore, it was determined whether NSC119910 could inhibit the Gβγ/PLC interaction and block PLC activation.
Ca^2+ fluxes were measured using two 35 mL cultures of differentiated HL-60 neutrophil cultures (0.2×10^6 cells/mL). Cells were cultured for three days with in DMSO (1.2%), washed in HSS and resuspended in 2 mL HBSS at a concentration of 7×10^6 cells/mL. Addition of DMSO to the growth medium induces differentiation of these cells into morphologically and functionally mature neutrophils (Collins, et al. (1978) Proc. Natl. Acad. Sci. USA 75:2458; Collins, et al., (1979) J. Exp. Med. 149:969). Neutrophils were preloaded with fura-2 (1 μM), a fluorescent Ca^2+-sensitive indicator (Suh, et al., (1996) J. Biol. Chem. 271:32753), for 45 minutes, washed with HBSS and resuspended in 2 mL of indicator-free HBSS. An 140 μL aliquote of cells was added to a total of 2 mL HBSS. Fluorescence ratios were taken by dual excitation at 340 and 380 nm and emission at 510 nm. After a stable baseline was established, either DMSO or NSC119910 was added and incubated for 5 minutes. Subsequently, either fMLP or ATP agonists were added to activate release of Ca^2+ from intracellular stores.

The subject of experiment [2] is fMLP-dependent ERK activation. Put plainly: fMLP-dependent ERK activation. It counts as cell-based.
For experiment [3], the target named is T1, Fαi1·b-Gβ1γ2 heterotrimer (Rattus norvegicus, UniProt P54311).
T1 construct: made in house; host or cells: Sf9 insect cells (baculovirus) for b-Gβ1γ2
T1 sequence (P54311 whole entry): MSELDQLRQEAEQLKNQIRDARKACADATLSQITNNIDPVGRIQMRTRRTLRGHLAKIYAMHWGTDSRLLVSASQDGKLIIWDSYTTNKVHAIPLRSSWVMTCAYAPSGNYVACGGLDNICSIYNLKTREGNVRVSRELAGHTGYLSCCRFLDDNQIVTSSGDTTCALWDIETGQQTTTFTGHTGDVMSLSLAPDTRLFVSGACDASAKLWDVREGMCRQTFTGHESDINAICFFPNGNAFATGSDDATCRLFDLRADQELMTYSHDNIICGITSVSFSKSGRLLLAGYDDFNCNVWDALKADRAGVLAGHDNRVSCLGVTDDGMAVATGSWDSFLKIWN
T1 sequence (P59768 2-68, further chain): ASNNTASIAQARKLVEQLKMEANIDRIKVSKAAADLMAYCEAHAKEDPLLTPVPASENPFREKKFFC
Put plainly: Flow cytometry dissociation of Fαi1 from preformed heterotrimer with b-Gβ1γ2. It counts as binding. The following applies: peptide added to preformed Fαi1·b-Gβ1γ2. The method, then:
Fluorescein-labeled Gαi1 (Fαi1) was prepared in accordance with standard methods (Sarvazyan, et al. (1998) supra). Assays were used to determine peptide effects on Gα-Gβγ interactions included competition and dissociation assays (Ghosh, et al. (2003) supra). Briefly, for competition-based assays, 100 pM Fαi1 and indicated concentrations of peptides were added to 50 pM b-Gβ1γ2 immobilized on 10^5 beads per mL and incubated at room temperature for 30 minutes to reach equilibrium. The bead-associated fluorescence was then recorded in a BD Biosciences FACSCALIBUR™ flow cytometer. Data was corrected for background fluorescence and fit with a sigmoid dose response curve using Graph Pad Prism 4. To measure dissociation of Fαi1 from b-Gβ1γ2, 100 pM of Fαi1 was incubated with 50 pM immobilized b-Gβ1γ2 at room temperature for 15-20 minutes. The fluorescence of bound Fαi1 subunit was measured, followed by the addition of a 200-fold excess of unlabeled Gαi1 or peptides and the amount of Fαi1 remaining bound to the beads was measured at the indicated times.

In the next experiment the test system is PLC β2. The following applies: inhibition of PLC β2 activation by Gβ1γ2; cited from earlier work.

Results on four compounds are retold here after patent US8748480B2, “Methods for treating opioid tolerance” (priority 2005, dated 2014).

No end group written: not given here.

Take `O=C(O)c1cccc2cccc(-c3c4ccc(=O)c(O)c-4oc4c(O)c(O)ccc34)c12` [NSC119893]: the “Ca2+ mobilization” value in experiment [1] is recorded as “block”. Also, the “fMLP-dependent ERK activation” value in experiment [2] is on record as “without interfering”.

Turning to `C[C@H](NC(=O)[C@H](CS)NC(=O)[C@@H](N)CO)C(=O)N[C@@H](CCCNC(=N)N)C(=O)N[C@@H](Cc1ccccc1)C(=O)N[C@@H](Cc1ccccc1)C(=O)NCC(=O)N[C@H](C(=O)N1CCC[C@H]1C(=O)NCC(=O)N[C@@H](CS)C(=O)N[C@H](C(=O)O)[C@@H](C)O)[C@@H](C)O` [SCAR], in experiment [3], the “dissociation of a preformed heterotrimer” value is recorded as “could not promote dissociation”.

As to `CC[C@H](C)[C@H](NC(=O)[C@H](CC(N)=O)NC(=O)[C@H](CC(C)C)NC(=O)[C@H](C)NC(=O)[C@H](C)NC(=O)[C@H](CCCNC(=N)N)NC(=O)[C@@H](NC(=O)[C@@H](N)CO)[C@@H](C)CC)C(=O)N[C@@H](CC(C)C)C(=O)NCC(=O)N[C@@H](Cc1ccc(O)cc1)C(=O)N1CCC[C@H]1C(=O)N[C@@H](CC(=O)O)C(=O)N[C@@H](Cc1ccc(O)cc1)C(=O)N[C@@H](CC(=O)O)C(=O)O` [SIRK(Lys4Ala)], the “dissociation of a preformed heterotrimer” value in experiment [3] was “failed to accelerate heterotrimer dissociation”.

As to SIRKALNILAYPDYD [SIRK(Gly10Ala)], the “dissociation of a preformed heterotrimer” value in experiment [3] was “could still accelerate heterotrimer dissociation”. For the same compound, the “change of IC50 relative to wild-type SIRK peptide” value in the experiment with PLC β2 is on record as 12 fold.
